Results taken from patent US20100129317A1 (priority 2006, published 2010).
“Also recorded” adds a separate entry of the source.

Legend:
Hantaan virus (HTNV) = format: cell-based
[1] = test system: Crimean Congo Hemorraghic fever virus (CCHFV); format: cell-based
Human adenosine kinase [2] = target: T1, Human adenosine kinase (Homo sapiens, UniProt P55263); assay: Adenosine kinase activity with selected nucleoside analogs (conversion to 5'-monophosphate, HPLC); format: biochemical; details: 100 μM of each compound and ATP, 37° C., conversion to 5'-monophosphate by HPLC
T1 sequence (P55263 whole entry): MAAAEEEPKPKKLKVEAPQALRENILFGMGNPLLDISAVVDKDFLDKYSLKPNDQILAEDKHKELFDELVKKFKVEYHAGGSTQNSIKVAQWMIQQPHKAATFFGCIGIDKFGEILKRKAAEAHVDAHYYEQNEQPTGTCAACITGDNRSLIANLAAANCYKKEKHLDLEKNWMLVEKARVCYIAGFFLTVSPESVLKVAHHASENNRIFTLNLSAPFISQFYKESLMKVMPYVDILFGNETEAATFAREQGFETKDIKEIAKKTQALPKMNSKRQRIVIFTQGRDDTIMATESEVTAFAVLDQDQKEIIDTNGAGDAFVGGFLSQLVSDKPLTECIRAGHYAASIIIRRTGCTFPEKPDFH

[3] = test system: GTP levels in human cells; assay: Intracellular GTP levels in human cells; format: cell-based; details: for effect of treatment on GTP levels in human cells: 10 μM
Human adenosine kinase [4] = target: T1, Human adenosine kinase; assay: Radiolabeled TA-18 as substrate for human adenosine kinase; format: biochemical; details: radiolabeled compound, 10 μM
influenza A/Udorn/72 = format: cell-based, Influenza A H3N2
human CEM cells = assay: Metabolism to phosphorylated intracellular metabolites in human cells

O=c1c2ncn([C@@H]3O[C@H](CO)[C@@H](O)[C@H]3O)c2ncn1-c1cccc(F)c1 [IA-3, N^1-(3-fluorophenyl)-inosine]
antiviral activity against HTNV (Hantaan virus (HTNV)): showed antiviral activity

Nc1c(C(=O)Nc2cccc(F)c2)ncn1[C@@H]1O[C@H](CO)C(O)C1O (stereo partly drawn) [RN-3, 5-amino-4-N-3-fluorophenylcarboxamide-1-β-D-ribofuranosyl-1H-imidazole]
antiviral activity against HTNV (Hantaan virus (HTNV)): showed activity

O=[N+]([O-])c1ncn([C@@H]2O[C@H](CO)C(O)[C@@H]2O)n1 (some centres unmarked) [TA-1]
antiviral activity against CCHFV [1]: showed antiviral activity

CC(=O)c1ncn([C@@H]2O[C@H](CO)[C@@H](O)[C@H]2O)n1 [TA-13, 1-(1-β-D-ribofuranosyl-[1,2,4]triazole-3-yl)-ethanone]
Activity as a percent of ribavirin (Human adenosine kinase [2]): 8% of ribavirin

OC[C@H]1O[C@@H](n2cnc(C(O)c3ccccc3)n2)C(O)[C@H]1O (stereo partly drawn) [TA-14, 1-(1-β-D-ribofuranosyl-[1,2,4]triazol-3-yl)-phenylmethanol]
antiviral activity against HTNV (Hantaan virus (HTNV)): showed antiviral activity

C#Cc1ncn([C@@H]2O[C@H](CO)[C@@H](O)[C@H]2O)n1 [TA-18, 3-ethynyl-1-(β-D-ribofuranosyl)-[1,2,4]triazole]
Activity as a percent of ribavirin (Human adenosine kinase [2]): 25% of ribavirin
antiviral activity against HTNV (Hantaan virus (HTNV)): showed antiviral activity
effect of treatment on GTP levels in human cells [3]: decline in GTP levels
potency of metabolites in reducing GTP levels compared with ribavirin metabolites ([3]; inferred from metabolite amounts and GTP decline): more potent in reducing GTP levels than the ribavirin metabolites
substrate for human adenosine kinase (radiolabeled TA-18) (Human adenosine kinase [4]): it is a substrate for human adenosine kinase; also recorded: subs ate for human adenosine kinase
antiviral activity against influenza (influenza A/Udorn/72): showed antiviral activity
conversion to phosphorylated metabolites in human cells (human CEM cells; human CEM cells, 10 μM): converted to phosphorylated metabolites
antiviral activity against CCHFV [1]: showed antiviral activity

NC(=O)CC(O)c1ncn([C@@H]2O[C@H](CO)[C@@H](O)[C@H]2O)n1 (stereo partly drawn) [TA-20, 3-(1-β-D-ribofuranosyl-[1,2,4]triazol-3-yl)-3-hydroxypropionamide]
Activity as a percent of ribavirin (Human adenosine kinase [2]): 5% of ribavirin

Nc1ncnc2c1c(I)cn2[C@@H]1O[C@H](CO)[C@@H](O)[C@H]1O [iodotubercidin, reference compound]
effect of adenosine kinase inhibition with iodotubercidin on the decline in GTP levels caused by TA-18 [3]: prevented the decline in GTP levels caused by TA-18
effect of adenosine kinase inhibition with iodotubercidin on the metabolism of TA-18 (human CEM cells; human cells): inhibited the metabolism of TA-18

NC(=O)c1ncn([C@@H]2O[C@H](CO)[C@@H](O)[C@H]2O)n1 [ribavirin, reference compound]
effect of treatment on GTP levels in human cells [3]: decrease in GTP levels
